Experimental findings from patent US20140065122A1, “Method for Removing a Microorganism Biofilm” (priority 2010, published 2014) are described below.

Assay [1] deals with Staphylococcus aureus RN4220 GFP biofilm. The assay can be described thus: Examples 4 and 5: log reduction of Staphylococcus aureus biofilm after bacterial pretreatment followed by benzalkonium chloride. The format is cell-based. The settings on record: Example 5; treatment with C14 benzalkonium chloride after pretreatment with the named strain(s). The procedure: The target biofilms of Staphylococcus aureus RN4220 GFP cultivated in microplates and bacilli cultures used are obtained according to the method previously described for Bacillus thuringiensis 407.
On a microplate containing 24-hour biofilms of Staphylococcus aureus RN4220 GFP having a thickness greater than 30 μm, one carefully removes 250 μL of supernatant from each well. 250 μL of culture medium (control) or suspension of: • Bt • BtΔfla • Bl • or Bt+Bl at equal concentrations, calibrated at 10^8 cells/mL are then added to each well.
The Staphylococcus aureus biofilms in the presence or not of bacteria are then incubated at 37° C. for 4 hours to allow infiltration of swimming bacteria. The supernatants are eliminated prior to placement into contact with the biocide.
These target biofilms are then treated by adding to the wells 200 μL of C14 benzalkonium chloride (BAC, Fluka, Buchs, Switzerland) at a concentration of 750 ppm, or 200 μl of […] sodium chloride (NaCl) (“non-treated” biofilm. […]
The surviving S. aureus are counted on TSA agar after serialized dilutions in 150-mM NaCI and incubation for 24 hours at 37° C.
The log 10 reductions of the S. aureus bacteria are calculated by comparing the relationship of the surviving ones in the disinfected biofilms to the population of non-treated biofilms. […]

The test system is the same in assay [2]. Description: Example 2: Staphylococcus aureus biofilm treated with lysostaphin with or without pretreatment by swimming Bacillus thuringiensis 407, residual biovolume. The format is cell-based. The procedure: The strains of bacteria used for these experiments correspond to strains of Staphylococcus aureus RN4220 GFP and Bacillus thuringiensis 407 described in Table I.
The target biofilms of Staphylococcus aureus RN4220 GFP cultivated in microplates and the Bacillus thuringiensis 407 cultures used are obtained according to the method described previously.
On a microplate containing 24-hour biofilms of Staphylococcus aureus RN4220 GFP having a thickness of more than 30 μm, one carefully removes 250 μL of supernatant from each well. 250 μL of culture medium (control) or suspension of Bacillus thuringiensis 407 calibrated at 10^8 cells/mL are then added into each well.
The Staphylococcus aureus biofilms in the presence or not of swimming bacteria are then incubated at 37° C. for 4 hours.
These target biofilms, sensitized or not for 4 hours by a cocktail of swimming bacteria, are then treated by adding into the wells 250 μL of lysostaphin in a concentration range of 0 to 0.5 μg/ml.
The same experimental device as the one described in the first experiment was used to quantify the effectiveness of treatment (comparison between the residual biovolume of the target biofilm during activity of the lysostaphin with or without pretreatment and a cocktail of swimming bacteria).

Turning to C14 benzalkonium chloride, the “Log reduction (+/−0.2)” value in assay [1] is reported as −0.9 log.
As for lysostaphin, the “eradication of the target biofilm by the antimicrobial compound alone” value in assay [2] (lysostaphin concentration <0.5 μg/ml, without pretreatment) is “does not allow eradication”. In addition, the “effectiveness on the target biofilm after pretreatment with a cocktail of swimming bacteria” value in assay [2] (pretreatment Bacillus thuringiensis 407 10^8 cells/mL 4 hours, lysostaphin 0 to 0.5 μg/ml, P<0.05) was “improved”.
